Common to all, as to format: cell-based
The target in one experiment is T1, EML4-ALK-BaF3 (Homo sapiens, UniProt Q9UM73).
T1 construct: expressed in transfected cells; host or cells: Ba/F3 cells; the other entry of the earlier key: EML4 (Q9HC35, Echinoderm microtubule-associated protein-like 4)
Put plainly: Growth inhibition of EML4-ALK transformed BaF3 cells (MTS). Particulars: for IC50: EML4-ALK-BaF3 cells, 48 hours, MTS, Table 12. On the procedure:
(§1) If compounds can inhibit the activity of ALK kinase or the activity of ALK signaling pathway, they can inhibit the growth of ALK transformed Ba/F3 cells. […] The broad-spectrum toxicity of compounds can be evaluated by determining the effect of the compounds on the growth of wild type BaF3 cells.
(§2) 1) Medium: DMEM (Dulbecco's modified eagle medium) or RPMI1640 (containing 10% fetal bovine serum, 100 μg/mL ampicillin, 100 μg/mL streptomycin).)
(§3) Reagents: MTS solution (2 mg/mL MTS (3-(4,5-dimethylthiazol-2-yl)-5-(3-carboxymethoxyphenyl)-2-(4-sulfophenyl)-2H-tetrazolium, inner salt); 100 μg/mL PES ([…])).
(§4) 3) Test of compound: Transformed Ba/F3 cells (EML4-ALK-BaF3, EML4-ALK(L1196M)-BaF3, NPM-ALK-BaF3) (2×10^4/well) were distributed into 96-well plates, with volume of cell sap of 90 μL, 10 μL of compounds in gradient concentration (the highest concentration 10 was μM, followed by 1/3 step by step dilution, a total of 8 concentrations were set, the system contained 0.1% DMSO (dimethyl sulfoxide)). The cell plates mixed with compounds were cultured in a cell incubator (37° C.; 5% CO2) for 48 hours, and the added 20 μL of MTS reaction solution, mixed and incubated in cell incubator (37° C.; 5% CO2) for 1-4 hours. The OD value at a wavelength of 490 nm was measured using eliasa (VARIOSKAN FLASH, Thermo). Three parallels were set up for each group, with a final concentration of 0.1% DMSO as negative control, and with medium without cells and compounds as blank control.
(§5) 4) Calculation of IC50 value: the semi inhibitory concentration of the compound acting on the cells was calculated using GradPad Prism 5 software according to the cell inhibitory rate measured.

In a further experiment the target is T2, NPM-ALK-BaF3 (Homo sapiens, UniProt Q9UM73).
T2 construct: expressed in transfected cells; host or cells: Ba/F3 cells; the other entry of the earlier key: NPM1 (P06748, Nucleophosmin)
In words: Growth inhibition of NPM-ALK transformed BaF3 cells (MTS). Particulars: 48 hours, Table 12. How it is done: (§6) The activity of compounds against ALK kinase was evaluated by inhibiting the growth of cellular ALK kinase EML4-ALK-BaF3, EML4-ALK (L1196M)-BaF3, NPM-ALK-BaF3, and wild type BaF3 (Proc. Natl. Acad. Sci. USA., 2006, 103, 3153-8.) The growth of cellular ALK kinase EML4-ALK-BaF3, EML4-ALK(L1196M)-BaF3, and NPM-ALK-BaF3 depends on their kinase activity. If compounds can inhibit the activity of ALK kinase or the activity of ALK signaling pathway, they can inhibit the growth of ALK transformed Ba/F3 cells. […] The broad-spectrum toxicity of compounds can be evaluated by determining the effect of the compounds on the growth of wild type BaF3 cells.
as §2, §3
as §4, with “control. The inhibition rate of cell growth was calculated by the following formula: Cell inhibition rate %=1−(OD experimental group−OD blank group)/(OD negative group−OD blank group)*100%” for “control.”
as §5

In the next experiment the target is T3, EML4-ALK (L1196M)-BaF3 (Homo sapiens, UniProt Q9UM73, L1196M).
T3 construct: expressed in transfected cells; host or cells: Ba/F3 cells; the other entry of the earlier key: EML4 (Q9HC35, Echinoderm microtubule-associated protein-like 4)
Put plainly: Growth inhibition of EML4-ALK (L1196M) transformed BaF3 cells (MTS). Particulars: 48 hours, Table 12, read-out: L1196M (IC50 nM). How it is done:
as §1, §2, §3, §4, §5

A further experiment has as its system wild type BaF3. Put plainly: Growth inhibition of wild type BaF3 cells (broad-spectrum toxicity). To be noted: Mus musculus, BaF3, 48 h, MTS, Table 12. How it is done:
as §6, §2, §3
as §4, with “control. The inhibition rate of cell growth was calculated by the following formula: Cell inhibition rate %=1−(OD experimental group−OD blank group)/(OD negative group−OD blank group)*100%” for “control.”
as §5

Structures are written as SMILES.

Take `CCOc1cc(C(=O)N2CCC(N3CCN(C)CC3)CC2)ccc1Nc1nc(Nc2ccccc2SC(C)C)c2c(ccn2C)n1` [IIB-5]: the IC50 against EML4-ALK-BaF3 was around 2720 nM; at NPM-ALK-BaF3, around 1370 nM; on EML4-ALK (L1196M)-BaF3, around 2780 nM; with wild type BaF3, around 2870 nM.
For `COc1cc(N2CCN(C)CC2)ccc1Nc1nc(Nc2ccccc2S(C)(=O)=O)c2c(ccn2C)n1` [IIC-1] the same measures were 3530 nM, 5120 nM, around 5890 nM and around 8670 nM.
Regarding `COc1cc(N2CCC(N3CCN(C)CC3)CC2)ccc1Nc1nc(Nc2ccccc2S(C)(=O)=O)c2c(ccn2C)n1` [IIC-2], the IC50 was 1510 nM on EML4-ALK-BaF3, around 3460 nM on NPM-ALK-BaF3, around 3510 nM at EML4-ALK (L1196M)-BaF3 and 5050 nM in the experiment on wild type BaF3.
On to `Cn1ccc2nc(Nc3ccc(N4CCC(O)CC4)cc3)nc(Nc3ccccc3S(C)(=O)=O)c21` [IIC-3], for which the IC50 is 8290 nM on EML4-ALK-BaF3, 11800 nM on NPM-ALK-BaF3, 8990 nM on EML4-ALK (L1196M)-BaF3 and around 10600 nM in the experiment on wild type BaF3.
For `Cn1ccc2nc(Nc3ccc(S(N)(=O)=O)cc3)nc(Nc3ccccc3S(C)(=O)=O)c21` [IIC-4] the same measures were above 10000 nM, above 10000 nM, 28200 nM and above 10000 nM.
For `CN1CCN(c2ccc(Nc3nc(Nc4ccccc4S(C)(=O)=O)c4c(ccn4C)n3)cc2)CC1` [IIC-5], the IC50 on EML4-ALK-BaF3 is around 3240 nM; against NPM-ALK-BaF3, 3780 nM; on EML4-ALK (L1196M)-BaF3, 4410 nM; in the experiment with wild type BaF3, around 7730 nM.
For `CCOc1cc(N2CCC(O)CC2)ccc1Nc1nc(Nc2ccccc2S(C)(=O)=O)c2c(ccn2C)n1` [IIC-6] the same measures were above 10000 nM, above 10000 nM, above 10000 nM and above 10000 nM.
With `COc1cc(N2CCN(C)CC2)ccc1Nc1nc(Nc2ccccc2S(=O)(=O)C(C)C)c2c(ccn2C)n1` [IID-1], the IC50 against EML4-ALK-BaF3 was 546 nM; against NPM-ALK-BaF3, 2260 nM; at EML4-ALK (L1196M)-BaF3, around 2960 nM; in the experiment with wild type BaF3, around 8180 nM.
With `COc1cc(N2CCC(N3CCN(C)CC3)CC2)ccc1Nc1nc(Nc2ccccc2S(=O)(=O)C(C)C)c2c(ccn2C)n1` [IID-2], the IC50 at EML4-ALK-BaF3 turned out to be 330 nM; against NPM-ALK-BaF3, 829 nM; at EML4-ALK (L1196M)-BaF3, 391 nM; in the experiment with wild type BaF3, 2910 nM. For the same compound, the targeting selectivity entry on EML4-ALK-BaF3 (ratio of IC50 between wild-type BaF3 and ALK transformed BaF3 cells) was “good targeting selectivity”.
Regarding `CC(C)S(=O)(=O)c1ccccc1Nc1nc(Nc2ccc(N3CCC(O)CC3)cc2)nc2ccn(C)c12` [IID-3], the half-inhibitory concentration (IC50) at EML4-ALK-BaF3 was 2160 nM; at NPM-ALK-BaF3, 6990 nM; at EML4-ALK (L1196M)-BaF3, 6650 nM; in the experiment on wild type BaF3 it was above 10000 nM.
As to `CC(C)S(=O)(=O)c1ccccc1Nc1nc(Nc2ccc(S(N)(=O)=O)cc2)nc2ccn(C)c12` [IID-4], the IC50 at EML4-ALK-BaF3 was around 3290 nM; against NPM-ALK-BaF3, around 6350 nM; on EML4-ALK (L1196M)-BaF3, around 6440 nM; in the experiment on wild type BaF3 it was 7540 nM.
For `CC(C)S(=O)(=O)c1ccccc1Nc1nc(Nc2ccc(N3CCN(C)CC3)cc2)nc2ccn(C)c12` [IID-5] the same measures were around 1130 nM, around 2580 nM, around 1120 nM and around 7940 nM.
For `CCOc1cc(N2CCC(O)CC2)ccc1Nc1nc(Nc2ccccc2S(=O)(=O)C(C)C)c2c(ccn2C)n1` [IID-6], the IC50 is 1600 nM on EML4-ALK-BaF3, around 3130 nM at NPM-ALK-BaF3, around 3000 nM on EML4-ALK (L1196M)-BaF3 and above 10000 nM in the experiment with wild type BaF3.
For `CCOc1cc(C(=O)N2CCC(N3CCN(C)CC3)CC2)ccc1Nc1nc(Nc2ccccc2S(=O)(=O)C(C)C)c2c(ccn2C)n1` [IID-7] the same measures were 783 nM, around 982 nM, around 2780 nM and around 2580 nM.
For `Cc1cc(Nc2nc(Nc3ccccc3S(=O)(=O)C(C)C)c3c(ccn3C)n2)c(OC(C)C)cc1C1CCN(C)CC1` [IID-8] the same measures were 1760 nM, around 3460 nM, 4770 nM and around 8380 nM.
For `COc1cc(C2CCN(C)CC2)c(C)cc1Nc1nc(Nc2ccccc2S(=O)(=O)C(C)C)c2c(ccn2C)n1` [IID-9] the same measures were 2240 nM, 4740 nM, around 2880 nM and around 8300 nM.
`COC(=O)c1ccccc1Nc1nc(Nc2ccc(N3CCN(C)CC3)cc2OC)nc2ccn(C)c12` [IIG-1]: the IC50 on EML4-ALK-BaF3 came to 2370 nM; against NPM-ALK-BaF3, 4870 nM; at EML4-ALK (L1196M)-BaF3, 3440 nM; in the experiment on wild type BaF3 it was 5170 nM.
For `COC(=O)c1ccccc1Nc1nc(Nc2ccc(N3CCC(N4CCN(C)CC4)CC3)cc2OC)nc2ccn(C)c12` [IIG-2] the same measures were around 3880 nM, 4890 nM, 3730 nM and around 7940 nM.
For `COC(=O)c1ccccc1Nc1nc(Nc2ccc(N3CCC(O)CC3)cc2)nc2ccn(C)c12` [IIG-3] the same measures were 4260 nM, 3180 nM, 2790 nM and 5040 nM.
For `COC(=O)c1ccccc1Nc1nc(Nc2ccc(C(=O)N3CCC(N4CCN(C)CC4)CC3)cc2OC)nc2ccn(C)c12` [IIG-4] the same measures were around 1330 nM, 4210 nM, 3950 nM and 4870 nM.
With `COC(=O)c1cccc(Nc2nc(Nc3ccc(N4CCN(C)CC4)cc3OC)nc3ccn(C)c23)c1` [IIH-1], the IC50 against EML4-ALK-BaF3 turned out to be 1620 nM; against NPM-ALK-BaF3, 1750 nM; on EML4-ALK (L1196M)-BaF3, 1840 nM; with wild type BaF3, 4940 nM.
In the case of `COC(=O)c1cccc(Nc2nc(Nc3ccc(N4CCC(O)CC4)cc3)nc3ccn(C)c23)c1` [IIH-2], the IC50 was found to be 1970 nM against EML4-ALK-BaF3, 4470 nM against NPM-ALK-BaF3, 1810 nM on EML4-ALK (L1196M)-BaF3 and 2830 nM with wild type BaF3.
For `COc1cc(N2CCN(C)CC2)ccc1Nc1nc(NCc2ccccc2SC)c2c(ccn2C)n1` [III-1] the same measures were around 1360 nM, around 2740 nM, 1690 nM and around 2780 nM.
For `CSc1ccccc1CNc1nc(Nc2ccc(N3CCC(O)CC3)cc2)nc2ccn(C)c12` [III-2] the same measures were above 10000 nM, above 10000 nM, above 10000 nM and above 10000 nM.
Turning to `CSc1ccccc1CNc1nc(Nc2ccc(S(N)(=O)=O)cc2)nc2ccn(C)c12` [III-3], the IC50 was 3200 nM against EML4-ALK-BaF3, 3710 nM against NPM-ALK-BaF3, 4000 nM at EML4-ALK (L1196M)-BaF3 and around 3340 nM in the experiment with wild type BaF3.
Regarding `COc1cc(N2CCN(C)CC2)ccc1Nc1nc(NCc2ccccc2SC(C)C)c2c(ccn2C)n1` [IIJ-1], the IC50 at EML4-ALK-BaF3 was around 865 nM; on NPM-ALK-BaF3 it was 627 nM; at EML4-ALK (L1196M)-BaF3 it was 544 nM; in the experiment on wild type BaF3, around 911 nM.
For `CC(C)Sc1ccccc1CNc1nc(Nc2ccc(N3CCC(O)CC3)cc2)nc2ccn(C)c12` [IIJ-2] the same measures were 1710 nM, 1610 nM, 1610 nM and around 2860 nM.

Broadly, the IC50 is the concentration needed to halve the response being measured.

These data come from patent publication US10508118B2, “Pyrimidopyrrole compounds, method for preparing the same, pharmaceutical compositions comprising the same and uses thereof” (Xiamen University, priority 2015, dated 2019).
